Active and inactive are the calls of the source. No cut-off for these calls is given here.
What was measured:
Homo sapiens = organism: Homo sapiens; assay: Selectivity ratio, ratio of IC50 for human P2X3 receptor expressed in human 1321N1 cells to human P2X7 receptor expressed in HEK293 cells; assay type: cell-based
MDA-MB-231 [1] = assay: Antimigratory activity against human MDA-MB-231 cells xenografted in zebrafish assessed as inhibition of cell dissemination and invasion at 10 uM measured after 4 days by fluorescence microscopic analysis relative to control; assay type: functional, cell-based
P2X purinoceptor 7 [2] = molecular target: T1, P2X purinoceptor 7 (Homo sapiens, UniProt Q99572); assay: Antagonist activity at human P2X7 receptor expressed in HEK293 cells assessed as inhibition of BzATP-induced EtBr uptake measured after 2 hrs by fluorescence analysis; assay type: cell-based
T1 sequence (Q99572 whole entry): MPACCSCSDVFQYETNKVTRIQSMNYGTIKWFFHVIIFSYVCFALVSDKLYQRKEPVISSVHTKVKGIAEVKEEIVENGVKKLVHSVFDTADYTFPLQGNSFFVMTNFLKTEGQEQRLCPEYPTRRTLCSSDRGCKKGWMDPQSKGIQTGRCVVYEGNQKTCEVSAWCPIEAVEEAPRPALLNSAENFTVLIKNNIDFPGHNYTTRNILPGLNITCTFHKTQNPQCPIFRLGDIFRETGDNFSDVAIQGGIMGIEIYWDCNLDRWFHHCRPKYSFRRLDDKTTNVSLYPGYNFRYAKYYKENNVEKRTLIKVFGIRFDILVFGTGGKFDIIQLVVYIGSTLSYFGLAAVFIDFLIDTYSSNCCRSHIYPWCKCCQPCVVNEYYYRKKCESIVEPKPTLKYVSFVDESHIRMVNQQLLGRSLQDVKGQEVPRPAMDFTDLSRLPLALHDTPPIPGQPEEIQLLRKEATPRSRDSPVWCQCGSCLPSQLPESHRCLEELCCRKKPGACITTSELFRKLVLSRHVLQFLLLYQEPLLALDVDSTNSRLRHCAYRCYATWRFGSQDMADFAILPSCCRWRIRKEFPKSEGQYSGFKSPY

MDA-MB-231 [3] = assay: Cytotoxicity against human MDA-MB-231 cells assessed as reduction in cell viability at 2.5 to 10 uM measured after 48 hrs by WST-1 cell viability assay; assay type: cell-based; conditions: mda-mb-231, 48 h
MDA-MB-231 [4] = assay: Antiinvasive activity against human MDA-MB-231 cells measured after 48 hrs by transwell invasion assay; assay type: functional, cell-based; conditions: MDA-MB-231, 48 h
[5] = molecular target: T2, P2X purinoceptor 4 (Homo sapiens) (UniProt Q99571); assay: Antagonist activity at human P2X4 receptor expressed in human 1321N1 cells assessed as inhibition of ATP-induced calcium influx at 1 uM preincubated for 30 mins prior to ATP-stimulation by calcium influx assay; assay type: cell-based
T2 sequence (whole entry): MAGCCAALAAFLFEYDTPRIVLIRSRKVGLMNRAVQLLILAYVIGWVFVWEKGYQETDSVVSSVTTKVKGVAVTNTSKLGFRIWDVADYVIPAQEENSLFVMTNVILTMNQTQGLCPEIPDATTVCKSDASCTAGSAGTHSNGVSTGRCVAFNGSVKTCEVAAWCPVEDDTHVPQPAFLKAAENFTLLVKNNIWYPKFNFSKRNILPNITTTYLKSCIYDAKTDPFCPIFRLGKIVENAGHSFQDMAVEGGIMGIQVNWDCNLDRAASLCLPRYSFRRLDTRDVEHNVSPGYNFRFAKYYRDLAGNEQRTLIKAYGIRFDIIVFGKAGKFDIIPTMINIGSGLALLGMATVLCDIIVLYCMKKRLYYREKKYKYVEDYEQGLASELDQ

[6] = molecular target: T3, P2X purinoceptor 1 (Homo sapiens) (UniProt P51575); assay: Antagonist activity at human P2X1 receptor expressed in human 1321N1 cells assessed as inhibition of ATP-induced calcium influx at 1 uM preincubated for 30 mins prior to ATP-stimulation by calcium influx assay; assay type: cell-based
T3 sequence (whole entry): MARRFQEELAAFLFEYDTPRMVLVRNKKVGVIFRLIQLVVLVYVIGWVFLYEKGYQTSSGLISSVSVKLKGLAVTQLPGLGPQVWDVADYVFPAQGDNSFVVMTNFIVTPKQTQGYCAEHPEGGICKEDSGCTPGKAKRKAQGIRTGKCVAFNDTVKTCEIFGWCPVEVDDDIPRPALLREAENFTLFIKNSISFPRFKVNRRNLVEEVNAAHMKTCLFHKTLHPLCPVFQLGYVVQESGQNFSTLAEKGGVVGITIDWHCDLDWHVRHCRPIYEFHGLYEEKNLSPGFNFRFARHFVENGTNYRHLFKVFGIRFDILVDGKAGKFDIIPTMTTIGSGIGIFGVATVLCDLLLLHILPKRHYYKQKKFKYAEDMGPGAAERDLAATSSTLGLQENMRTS

P2X purinoceptor 3 [7] = molecular target: T4, P2X purinoceptor 3 (Homo sapiens, UniProt P56373); assay: Antagonist activity at human P2X3 receptor expressed in human 1321N1 cells assessed as inhibition of ATP-induced calcium influx preincubated for 30 mins prior to ATP-stimulation by calcium influx assay; assay type: cell-based
T4 sequence (P56373 whole entry): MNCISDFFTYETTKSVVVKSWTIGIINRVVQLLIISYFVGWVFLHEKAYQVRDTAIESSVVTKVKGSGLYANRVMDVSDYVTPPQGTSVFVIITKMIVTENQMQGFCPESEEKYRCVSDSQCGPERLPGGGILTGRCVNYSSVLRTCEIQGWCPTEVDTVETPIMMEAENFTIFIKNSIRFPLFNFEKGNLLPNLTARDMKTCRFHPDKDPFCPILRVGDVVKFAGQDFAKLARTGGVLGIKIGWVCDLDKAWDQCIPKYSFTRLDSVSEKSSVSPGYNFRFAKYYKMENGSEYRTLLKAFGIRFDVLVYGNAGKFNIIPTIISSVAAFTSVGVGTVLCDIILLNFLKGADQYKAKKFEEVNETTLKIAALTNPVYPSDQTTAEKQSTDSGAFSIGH

[8] = molecular target: T5, P2X purinoceptor 2 (Homo sapiens) (UniProt Q9UBL9); assay: Antagonist activity at human P2X2 receptor expressed in human 1321N1 cells assessed as inhibition of ATP-induced calcium influx at 1 uM preincubated for 30 mins prior to ATP-stimulation by calcium influx assay; assay type: cell-based
T5 sequence (whole entry): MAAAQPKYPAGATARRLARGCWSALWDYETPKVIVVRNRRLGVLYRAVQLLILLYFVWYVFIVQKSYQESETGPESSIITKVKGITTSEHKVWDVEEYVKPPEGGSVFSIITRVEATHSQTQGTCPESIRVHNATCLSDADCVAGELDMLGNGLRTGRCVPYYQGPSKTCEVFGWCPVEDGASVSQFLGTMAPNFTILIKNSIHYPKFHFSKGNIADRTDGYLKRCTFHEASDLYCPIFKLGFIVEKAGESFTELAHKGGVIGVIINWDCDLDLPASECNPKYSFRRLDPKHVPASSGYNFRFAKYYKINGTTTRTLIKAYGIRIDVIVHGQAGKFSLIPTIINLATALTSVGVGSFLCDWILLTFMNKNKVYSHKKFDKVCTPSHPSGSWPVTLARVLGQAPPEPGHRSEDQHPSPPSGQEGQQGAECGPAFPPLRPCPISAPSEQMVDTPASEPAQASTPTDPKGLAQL

P2X purinoceptor 7 [9] = molecular target: T1, P2X purinoceptor 7; assay: Antagonist activity at human P2X7 receptor in LPS/IFN-gamma-differentiated human THP-1 cells assessed as suppression of BzATP-stimulated IL-1beta release per-incubated for 30 mins before BzATP addition and measured after 30 mins by ELISA; assay type: cell-based
[10] = Toxicity in zebrafish assessed as induction of teratogenic developmental toxicity at 10 uM; set-up: species or system Danio rerio; conditions: in vivo
[11] = molecular target: T6, P2X purinoceptor 3 (Homo sapiens) (UniProt P56373); assay: Antagonist activity at human P2X3 receptor expressed in human 1321N1 cells assessed as inhibition of ATP-induced calcium influx at 1 uM preincubated for 30 mins prior to ATP-stimulation by calcium influx assay; assay type: cell-based
T6 sequence (whole entry): T4 sequence (P56373 whole entry)

P2X purinoceptor 1 = molecular target: T7, P2X purinoceptor 1 (Rattus norvegicus, UniProt P47824); assay: Antagonist activity at P2X1 receptor in rat vas deferens assessed as inhibition of alpha/beta-meATP-induced calcium influx
T7 sequence (P47824 whole entry): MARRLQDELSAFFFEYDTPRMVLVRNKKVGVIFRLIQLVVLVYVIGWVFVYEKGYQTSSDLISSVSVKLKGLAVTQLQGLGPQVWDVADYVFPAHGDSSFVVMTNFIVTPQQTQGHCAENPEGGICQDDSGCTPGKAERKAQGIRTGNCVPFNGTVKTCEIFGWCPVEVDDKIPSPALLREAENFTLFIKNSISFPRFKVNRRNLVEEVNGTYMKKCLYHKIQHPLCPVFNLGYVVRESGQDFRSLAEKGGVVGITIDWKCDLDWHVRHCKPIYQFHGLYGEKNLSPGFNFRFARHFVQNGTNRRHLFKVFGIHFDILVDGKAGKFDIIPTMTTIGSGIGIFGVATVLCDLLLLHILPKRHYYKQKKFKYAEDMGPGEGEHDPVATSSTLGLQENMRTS

P2X purinoceptor 7 [12] = molecular target: T1, P2X purinoceptor 7; assay: Antagonist activity at human P2X7 receptor
P2X purinoceptor 3 [13] = molecular target: T8, P2X purinoceptor 3 (Rattus norvegicus, UniProt P49654); assay: Antagonist activity at P2X3 receptor in Wistar rat DRG neurons assessed as inhibition of alpha/beta-meATP-induced currents preincubated for 5 mins prior to alpha/beta-meATP-stimulation measured at every sec for 5 mins by whole cell patch-clamp assay
T8 sequence (P49654 whole entry): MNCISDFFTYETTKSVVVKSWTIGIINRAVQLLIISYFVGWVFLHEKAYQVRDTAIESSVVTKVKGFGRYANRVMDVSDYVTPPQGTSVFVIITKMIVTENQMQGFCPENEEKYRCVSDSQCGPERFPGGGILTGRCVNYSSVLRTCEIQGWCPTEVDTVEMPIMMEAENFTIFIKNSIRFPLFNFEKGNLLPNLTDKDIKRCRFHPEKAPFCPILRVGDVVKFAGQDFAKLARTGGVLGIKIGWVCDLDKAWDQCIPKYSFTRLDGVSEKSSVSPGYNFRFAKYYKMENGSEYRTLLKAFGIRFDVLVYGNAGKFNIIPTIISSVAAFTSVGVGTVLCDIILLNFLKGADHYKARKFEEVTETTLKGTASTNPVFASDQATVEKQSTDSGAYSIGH

[14] = molecular target: T2, P2X purinoceptor 4 (Homo sapiens); assay: Antagonist activity at human P2X4 receptor expressed in human 1321N1 cells assessed as inhibition of ATP-induced calcium influx at 10 uM preincubated for 30 mins prior to ATP-stimulation by calcium influx assay; assay type: cell-based
P2X purinoceptor 2 = molecular target: T9, P2X purinoceptor 2 (Homo sapiens, UniProt Q9UBL9); assay: Antagonist activity at human P2X2 receptor expressed in human 1321N1 cells assessed as inhibition of ATP-induced calcium influx preincubated for 30 mins prior to ATP-stimulation by calcium influx assay; assay type: cell-based
T9 sequence (Q9UBL9 whole entry): T5 sequence (whole entry)

SMILES | inhibition (MDA-MB-231 [1]) | IC50 (P2X purinoceptor 7 [2]) [nM] | IC50 (MDA-MB-231 [4]) [nM] | inhibition [5] [%] | inhibition [6] [%] | IC50 (P2X purinoceptor 3 [7]) [nM] | inhibition [8] [%] | IC50 (P2X purinoceptor 7 [9]) [nM] | other results
CN(C)c1ccc(C(=O)N2CCN(c3cc(=O)[nH]c(=O)n3Cc3ccc(OS(=O)(=O)c4cccc5cnccc45)cc3)CC2)cc1 | Active | 1.53 | 2590 | 6 | 23 | 2660 | 2 | 1.33 | Ratio IC50 (Homo sapiens): 1000 to 7000; Activity (MDA-MB-231 [3]): Non-Toxic; Activity [10]: Non-Toxic
CS(=O)(=O)c1ccc(C(=O)N2CCC(c3nc4cc(OS(=O)(=O)c5cccc6cnccc56)ccc4[nH]3)CC2)cc1 | inactive | 7 | – | 15 | 16 | – | 7 | 43 | inhibition [11]: 3%
O=C1NC(=O)N(C2CCN(C(=O)c3ccc(Cl)c(C(F)(F)F)c3)CC2)C1Cc1ccc(OS(=O)(=O)c2cccc3cnccc23)cc1 (centres undefined) | – | – | – | 0 | 28 | 600 | 5 | 54 | –
Cc1ccc(C(=O)Nc2ccc(S(=O)(=O)O)c3cc(S(=O)(=O)O)cc(S(=O)(=O)O)c23)cc1NC(=O)c1cccc(NC(=O)Nc2cccc(C(=O)Nc3cc(C(=O)Nc4ccc(S(=O)(=O)O)c5cc(S(=O)(=O)O)cc(S(=O)(=O)O)c45)ccc3C)c2)c1 [SURAMIN] | – | – | – | – | – | – | – | – | IC50 (P2X purinoceptor 1): 4680 nM
O=C(NCC12CC3CC(CC(C3)C1)C2)c1cc(CCCNCCCO)ccc1Cl | Active | – | 8700 | – | – | – | – | 0.06 | IC50 (P2X purinoceptor 7 [12]): 10 to 13 nM
COc1ccc(CC(=O)NC(N/C(=N/C#N)Nc2cccc3ncccc23)C(C)(C)C)cc1OC (centres undefined) | – | – | – | – | – | – | – | – | IC50 (P2X purinoceptor 7 [12]): 90 nM
O=C(Nc1cc(C(=O)Nc2ccc(S(=O)(=O)O)cc2)cc(C(=O)Nc2ccc(S(=O)(=O)O)cc2)c1)Nc1cc(C(=O)Nc2ccc(S(=O)(=O)O)cc2)cc(C(=O)Nc2ccc(S(=O)(=O)O)cc2)c1 | – | – | – | – | – | 1580 | – | – | IC50 (P2X purinoceptor 3 [13]): 527 nM
Nc1c(S(=O)(=O)O)cc(Nc2ccc(S(=O)(=O)O)c(Nc3nc(Cl)nc(Cl)n3)c2)c2c1C(=O)c1ccccc1C2=O | – | – | – | – | – | – | – | – | inhibition [14]: 3%; IC50 (P2X purinoceptor 2): 692 nM
CN(C)c1ccc(C(=O)N2CCC(n3cncc3-c3ccc(OS(=O)(=O)c4cccc(C(=O)NC5CC5)c4)cc3)CC2)cc1 | Active | 0.49 | 3630 | 7 | 22 | 910 | 7 | 1.03 | Ratio IC50 (Homo sapiens): 1000 to 7000; Activity (MDA-MB-231 [3]): Non-Toxic; Activity [10]: Non-Toxic
